Laboratory results published in PubChem BioAssay AID1199 (EPA DSSTox, 2008).
Activity calls are given as the source filed them.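 How the source made its calls: active means a tumour-causing dose and a tumour site recorded for mice in at least one sex group; inconclusive means only government mouse studies exist and were judged inadequate; inactive means mouse studies exist but none gave tumours.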

System: mouse carcinogenicity bioassay, TD50 from CPDB
Assay: DSSTox (CPDBAS) Carcinogenic Potency Database Summary Mouse Bioassay Results
In short: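 Values are TD50 carcinogenic potencies from mouse chronic bioassays, taking the most positive result for each sex-species. Sources are published literature and NCI/NTP studies; target sites reflect author-reported positive findings.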

[1] = TD50_Mouse_Note: no positive results, TargetSites_Mouse_Female: no positive results
[2] = TargetSites_Mouse_BothSexes: no positive results
[3] = TD50_Mouse_Note: TD50 is harmonic mean of more than one positive test, TargetSites_Mouse_Female: lung

What does the source list for `Oc1c(Cl)c(Cl)c(Cl)c(Cl)c1Cl`?
Potency (TD50_Mouse_Note: TD50 is harmonic mean of more than one positive test, TargetSites_Mouse_Female: adrenal gland, liver, vascular system): 0.0901 mmol/kg/day; Potency (TD50_Mouse_Note: TD50 is harmonic mean of more than one positive test, TargetSites_Mouse_Female: liver, vascular system): 0.0864 mmol/kg/day; outcome [1]: inactive

How did the Potency (TD50_Mouse_Note: TD50 is harmonic mean of more than one positive test, TargetSites_Mouse_Female: liver, mammary gland) turn out when `O=[N+]([O-])c1ccccc1` was run?
The Potency was 2.4 mmol/kg/day.

`CC(C)Nc1nc(Cl)nc(NC(C)C)n1` was tested. Which outcome [1] did it give?
The outcome was “inactive; no positive results”.

For `Cc1ccc(S(=O)(=O)NC(=O)NN2CCCCCC2)cc1`, which outcome [1] is on record?
Its outcome is “inactive; no positive results”.

Which outcome [1] does the source give for `CCOP(=O)(CC1CO1)OCC` (configuration not stated) here?
Its outcome is “inactive”.

With `CC(=O)C(N=Nc1ccc(Cl)cc1Cl)C(=O)Nc1ccc(-c2ccc(NC(=O)C(N=Nc3ccc(Cl)cc3Cl)C(C)=O)c(C)c2)cc1C` (configuration not stated) as the compound, how does the outcome [2] read?
The outcome was “inactive”.

How did the outcome [1] turn out when `CN1[C@@H]2CC(OC(=O)[C@@H](CO)c3ccccc3)C[C@H]1[C@@H]1O[C@@H]12` (some centres not stated) was run?
The outcome was “inactive; no positive results”.

How did the outcome [1] turn out when `CC1(C)COC1=O` was run?
Its outcome is “inactive; no positive results”.

For `COc1cc(N=Nc2ccccc2)ccc1N`, which Potency (TargetSites_Mouse_Female: liver) is on record?
Its Potency is 0.265 mmol/kg/day.

For `Oc1ccccc1O`, which Potency (TD50_Mouse_Note: TD50 is harmonic mean of more than one positive test, TargetSites_Mouse_Female: stomach) is on record?
Its Potency is 2.22 mmol/kg/day.

How did the Potency (TD50_Mouse_Note: TD50 is harmonic mean of more than one positive test, TargetSites_Mouse_Female: adrenal gland, liver) turn out when `c1ccoc1` was run?
Its Potency is 0.04 mmol/kg/day.

`Cc1ccc(N=C=O)cc1N=C=O` was tested. Which Potency (TargetSites_Mouse_Female: liver, vascular system) did it give?
The Potency was 1.44 mmol/kg/day.

`C=COC(N)=O` was tested. Which Potency (TD50_Mouse_Note: positive test results only by intraperitoneal or intravenous injection, TD50 is harmonic mean of more than one positive, TargetSites_Mouse_Female: liver, vascular system) did it give?
The Potency was 0.00142 mmol/kg/day.

`CCCNC(=O)NS(=O)(=O)c1ccc(Cl)cc1` was tested. Which outcome [1] did it give?
Its outcome is “inactive; no positive results”.

For `O=C(O[C@@H]1Cc2c(O)cc(O)cc2O[C@@H]1c1cc(O)c(O)c(O)c1)c1cc(O)c(O)c(O)c1`, which outcome (TD50_Mouse_Note: no positive results) is on record?
Its outcome is “inactive; no positive results”.

With `COc1ccc([N+](=O)[O-])cc1N=Nc1c(O)c(C(=O)Nc2cccc([N+](=O)[O-])c2)cc2ccccc12` as the compound, how does the outcome [1] read?
The outcome was “inactive; no positive results”.

For `CNC(=S)N(C)C`, which outcome [1] is on record?
Its outcome is “inactive; no positive results”.

For `CCOC(=O)CC(SP(=O)(OC)OC)C(=O)OCC` (configuration not stated), which outcome [1] is on record?
Its outcome is “inactive; no positive results”.

With `CNN` as the compound, how does the Potency (TD50_Mouse_Note: TD50 is harmonic mean of more than one positive test, TargetSites_Mouse_Female: liver, lung) read?
Its Potency is 0.164 mmol/kg/day.

And the Potency [3]?
The Potency was 0.0189 mmol/kg/day.

For `Cc1cn([C@H]2C[C@H](N=[N+]=[N-])[C@@H](CO)O2)c(=O)[nH]c1=O`, which Potency (TD50_Mouse_Note: TD50 is harmonic mean of more than one positive test, TargetSites_Mouse_Female: vagina) is on record?
Its Potency is 1.11 mmol/kg/day.

`S=P(N1CC1)(N1CC1)N1CC1` was tested. Which Potency (TD50_Mouse_Note: positive test results only by intraperitoneal or intravenous injection, TD50 is harmonic mean of more than one positive, TargetSites_Mouse_Female: hematopoietic system) did it give?
The Potency was 0.00118 mmol/kg/day.

How did the Potency [3] turn out when `NC(=O)NNc1ccccc1` was run?
Its Potency is 1.09 mmol/kg/day.

With `CCc1cccc2c3c([nH]c12)C(CC)(CC(=O)O)OCC3` (configuration not stated) as the compound, how does the outcome [1] read?
Its outcome is “inactive; no positive results”.

`O=NN1CCCC1` was tested. Which Potency did it give?
Its Potency is 0.00678 mmol/kg/day.

How did the outcome [2] turn out when `O=C(O)C1[O][Sb]2[O]C(=O)C([O]2)C(C(=O)O)[O][Sb]2[O]C(=O)C1[O]2` (configuration not stated) was run?
The outcome was “inactive”.

How did the Potency (TD50_Mouse_Note: TD50 is harmonic mean of more than one positive test, TargetSites_Mouse_Female: all tumor bearing animals) turn out when `O=S(=O)(O)NC1CCCCC1` was run?
Its Potency is 3.31 mmol/kg/day.

For `CC(C)C(C(=O)OC(C#N)c1cccc(Oc2ccccc2)c1)c1ccc(Cl)cc1` (configuration not stated), which outcome [1] is on record?
Its outcome is “inactive; no positive results”.

For `O=C(Oc1ccccc1)Oc1ccccc1`, which outcome [1] is on record?
The outcome was “inactive; no positive results”.

`CC(C)COC(=O)c1ccc(O)cc1` was tested. Which outcome [1] did it give?
Its outcome is “inactive; no positive results”.

`Cn1c(N)nc2ncc(-c3ccccc3)cc21` was tested. Which Potency (TD50_Mouse_Note: TD50 is harmonic mean of more than one positive test, TargetSites_Mouse_Female: hematopoietic system) did it give?
Its Potency is 0.127 mmol/kg/day.

For `Cn1cnc([N+](=O)[O-])c1Sc1ncnc2nc[nH]c12`, which Potency (TargetSites_Mouse_Female: hematopoietic system, vascular system) is on record?
The Potency was 0.0322 mmol/kg/day.

For `O=c1[nH]cc(F)c(=O)[nH]1`, which Potency (TD50_Mouse_Note: TD50 is harmonic mean of more than one positive test, TargetSites_Mouse_Female: hematopoietic system, lung) is on record?
The Potency was 0.0228 mmol/kg/day.

With `O=C1NS(=O)(=O)c2ccccc21` as the compound, how does the outcome [1] read?
The outcome was “inactive; no positive results”.

Which outcome [2] does the source give for `[O]=[Nb](=[O])[OH]` here?
Its outcome is “inactive”.

How did the outcome [1] turn out when `Nc1c(Cl)cc([N+](=O)[O-])cc1Cl` was run?
The outcome was “inactive; no positive results”.

`Nc1ccc(NCCO)c([N+](=O)[O-])c1` was tested. Which outcome (TD50_Mouse_Note: no positive results, TargetSites_Mouse_Female: NTP bioassay inadequate) did it give?
Its outcome is “inactive; no positive results”.

`O=C(O)CCCc1ccc(N(CCCl)CCCl)cc1` was tested. Which Potency (TD50_Mouse_Note: positive test results only by intraperitoneal or intravenous injection, TD50 is harmonic mean of more than one positive, TargetSites_Mouse_Female: lung) did it give?
The Potency was 0.000437 mmol/kg/day.

Which outcome [1] does the source give for `COc1c(Cl)c(Cl)c([N+](=O)[O-])c(Cl)c1Cl` here?
The outcome was “inactive; no positive results”.

How did the outcome [1] turn out when `NC(=S)Nc1ccccc1` was run?
The outcome was “inactive; no positive results”.

Which Potency (TD50_Mouse_Note: TD50 is harmonic mean of more than one positive test, TargetSites_Mouse_Female: mammary gland) does the source give for `COC1=CC(=O)C[C@@H](C)[C@]12Oc1c(Cl)c(OC)cc(OC)c1C2=O` here?
Its Potency is 0.0391 mmol/kg/day.

With `CN(C)CCOC(C)(c1ccccc1)c1ccccn1` (configuration not stated) as the compound, how does the Potency (TD50_Mouse_Note: TD50 is harmonic mean of more than one positive test, TargetSites_Mouse_Female: liver, thyroid gland) read?
Its Potency is 0.538 mmol/kg/day.

`NNCCO` was tested. Which Potency (TD50_Mouse_Note: TD50 is harmonic mean of more than one positive test, TargetSites_Mouse_Female: no positive results) did it give?
Its Potency is 0.00522 mmol/kg/day.

How did the Potency (TD50_Mouse_Note: TD50 is harmonic mean of more than one positive test, TargetSites_Mouse_Female: liver) turn out when `Nc1ncn[nH]1` was run?
The Potency was 0.301 mmol/kg/day.

With `O=NN(c1ccccc1)c1ccccc1` as the compound, how does the outcome [1] read?
Its outcome is “inactive; no positive results”.
